This is an account of results in PubChem BioAssay (NCI).

Among the test systems are BT-549 breast; CAKI-1 renal; IGROV1 ovarian; NCI-H23 lung; SF-268 CNS; SF-539 CNS; SK-MEL-28 melanoma; SK-MEL-5 melanoma; T-47D breast; UACC-62 melanoma.
Common to all, as to test: NCI tumour cell line growth inhibition, 48 h

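Following 48 hours of exposure in 96-well plates, responses at five concentrations were used to interpolate endpoints linearly. GI50 marks 50% less growth. The concentration for full growth arrest is given as TGI.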

As for `COc1ccc(Cl)cc1NC(=O)c1cccc([N+](=O)[O-])c1O`, the TGI is 27.4 µM in the test with BT-549 breast; greater than 64.8 µM with CAKI-1 renal; greater than 92.5 µM with IGROV1 ovarian; 40.7 µM in the test on NCI-H23 lung; greater than 100 µM in the test on SF-268 CNS; 33 µM in the test on SF-539 CNS. The TGI in the test on SK-MEL-28 melanoma was greater than 91.4 µM; in the test with SK-MEL-5 melanoma, 14.7 µM; in the test on T-47D breast, greater than 100 µM; in the test with UACC-62 melanoma, 24.3 µM.

With `C1=C(c2ccccc2)SC=C(c2ccccc2)S1`, the TGI was 84.8 µM in the test with BT-549 breast; greater than 100 µM in the test on CAKI-1 renal; greater than 100 µM with IGROV1 ovarian; greater than 100 µM in the test on NCI-H23 lung; greater than 100 µM in the test with SF-268 CNS; greater than 100 µM in the test on SF-539 CNS. The TGI is greater than 100 µM in the test with SK-MEL-28 melanoma, 77.9 µM in the test with SK-MEL-5 melanoma, greater than 100 µM with T-47D breast and greater than 100 µM in the test with UACC-62 melanoma.

In the case of `O=C(CNc1ncco1)Nc1ccc(S(=O)(=O)c2ccc(NC(=O)CNc3ncco3)cc2)cc1`, the GI50 in the test on BT-549 breast was 2.09 µM; with CAKI-1 renal, 1.56 µM; with IGROV1 ovarian, 1.76 µM; with NCI-H23 lung it was 2.46 µM; in the test with SF-268 CNS it was 1.53 µM; in the test with SF-539 CNS it was 1.7 µM. The GI50 is 2.38 µM with SK-MEL-28 melanoma, 1.52 µM in the test on SK-MEL-5 melanoma, 1.87 µM with T-47D breast and 1.75 µM with UACC-62 melanoma. Moreover, the TGI in the test on BT-549 breast was found to be 6.26 µM; with CAKI-1 renal, 3.28 µM; in the test on IGROV1 ovarian it was 5.32 µM; in the test with NCI-H23 lung it was 9.51 µM; in the test on SF-268 CNS it was 4.54 µM; in the test on SF-539 CNS it was 3.9 µM. Moreover, the TGI amounted to 5.51 µM in the test on SK-MEL-28 melanoma, 2.88 µM in the test on SK-MEL-5 melanoma, 4.38 µM with T-47D breast and 3.65 µM in the test on UACC-62 melanoma.

For the compound `Cc1cccc2c1O/C(=C\c1ccc([N+](=O)[O-])o1)C2=O`, the GI50 in the test on BT-549 breast is 1.28 µM; in the test with CAKI-1 renal, 0.494 µM; in the test on IGROV1 ovarian it was 1.54 µM; with NCI-H23 lung, 1.35 µM; in the test with SF-268 CNS, 1.56 µM; with SF-539 CNS, 1.53 µM. The GI50 with SK-MEL-28 melanoma was 1.53 µM; in the test with SK-MEL-5 melanoma it was 1.14 µM; with T-47D breast, 1.2 µM; in the test on UACC-62 melanoma it was 1.26 µM. Moreover, the TGI with BT-549 breast worked out at 2.63 µM; in the test with CAKI-1 renal, 1.8 µM; in the test with IGROV1 ovarian, 5.39 µM; in the test with NCI-H23 lung, 3.41 µM; in the test with SF-268 CNS, 3.94 µM; with SF-539 CNS, 3.22 µM. Also, the TGI in the test on SK-MEL-28 melanoma came out at 3.05 µM; in the test with SK-MEL-5 melanoma, 2.42 µM; with T-47D breast, 3.69 µM; in the test with UACC-62 melanoma it was 2.72 µM.

For `CCCCCCCCCCCCCC(=O)C(C)N` (stereo not given), the GI50 with BT-549 breast is 15.4 µM; in the test on CAKI-1 renal, 10 µM; in the test with IGROV1 ovarian, 3.68 µM; in the test with NCI-H23 lung, 6.94 µM; in the test on SF-268 CNS, 3.96 µM; in the test on SF-539 CNS, 6.63 µM. Further, the GI50 in the test with SK-MEL-28 melanoma is 16.8 µM; in the test on SK-MEL-5 melanoma it was 17.9 µM; in the test with T-47D breast, 2.17 µM; with UACC-62 melanoma, 3.25 µM. The TGI is 31.1 µM in the test on BT-549 breast; 22.6 µM in the test on CAKI-1 renal; 14 µM with IGROV1 ovarian; 21.9 µM in the test with NCI-H23 lung; 16 µM in the test with SF-268 CNS; 21.6 µM in the test with SF-539 CNS. Besides, the TGI turned out to be 32.5 µM with SK-MEL-28 melanoma, 32.2 µM with SK-MEL-5 melanoma, 5.5 µM in the test with T-47D breast and 10.4 µM in the test on UACC-62 melanoma.

For `O=C(O)c1cscc1Cc1cccs1`, the TGI in the test on BT-549 breast, with CAKI-1 renal, with IGROV1 ovarian, in the test with NCI-H23 lung, in the test on SF-268 CNS and with SF-539 CNS was greater than 100 µM each time. Moreover, the TGI in the test on SK-MEL-28 melanoma, in the test with SK-MEL-5 melanoma, with T-47D breast and in the test on UACC-62 melanoma was greater than 100 µM throughout.

Regarding `O=[N+]([O-])c1ccc(/C=C(/c2ccc([N+](=O)[O-])o2)S(=O)(=O)c2ccccc2)o1`, the TGI in the test with BT-549 breast was found to be 36.2 µM; with CAKI-1 renal it was 33 µM; in the test on IGROV1 ovarian, 30.6 µM; in the test with NCI-H23 lung, 38 µM; in the test on SF-268 CNS, 32.4 µM; in the test on SF-539 CNS it was 37.7 µM. The TGI in the test on SK-MEL-28 melanoma is 33.6 µM; in the test on SK-MEL-5 melanoma, 24.4 µM; in the test on T-47D breast, greater than 100 µM; in the test on UACC-62 melanoma, 19.1 µM.

Take `C#Cc1cccc(Oc2ccc(NC(=O)CCl)cc2)c1`: the GI50 is 37.2 µM in the test with BT-549 breast; greater than 82.5 µM with CAKI-1 renal; 5.85 µM with IGROV1 ovarian; 48.1 µM in the test on NCI-H23 lung; greater than 82.5 µM in the test with SF-268 CNS; greater than 82.5 µM in the test on SF-539 CNS. Further, the GI50 with SK-MEL-28 melanoma is greater than 82.5 µM; in the test with SK-MEL-5 melanoma, 33.6 µM; in the test with T-47D breast, greater than 82.5 µM; with UACC-62 melanoma, greater than 82.5 µM. Moreover, the TGI is greater than 82.5 µM in the test on BT-549 breast; greater than 82.5 µM in the test on CAKI-1 renal; 42.4 µM in the test with IGROV1 ovarian; greater than 82.5 µM in the test on NCI-H23 lung; greater than 82.5 µM in the test on SF-268 CNS; greater than 82.5 µM in the test with SF-539 CNS. Besides, the TGI with SK-MEL-28 melanoma, in the test on SK-MEL-5 melanoma, with T-47D breast and with UACC-62 melanoma was greater than 82.5 µM throughout.

With `COc1ccc(-c2nnc(N3CCN(C(=O)CN4CCN(c5ccc(Cl)cc5)CC4)CC3)nc2-c2ccc(OC)cc2)cc1`, the GI50 is 8.88 µM in the test with BT-549 breast; 28.5 µM with CAKI-1 renal; 29.4 µM in the test with IGROV1 ovarian; 24.4 µM with NCI-H23 lung; greater than 100 µM in the test on SF-268 CNS; 15.1 µM with SF-539 CNS. Also, the GI50 is greater than 100 µM in the test with SK-MEL-28 melanoma, 7.91 µM with SK-MEL-5 melanoma, 4.51 µM with T-47D breast and 31.5 µM with UACC-62 melanoma. For the same compound, the TGI with BT-549 breast was 82.8 µM; in the test with CAKI-1 renal it was greater than 100 µM; in the test with IGROV1 ovarian it was greater than 100 µM; in the test on NCI-H23 lung, greater than 100 µM; with SF-268 CNS it was greater than 100 µM; with SF-539 CNS, 74.8 µM. The TGI with SK-MEL-28 melanoma is greater than 100 µM; with SK-MEL-5 melanoma it was greater than 100 µM; with T-47D breast, 74.8 µM; with UACC-62 melanoma it was greater than 100 µM.
